Assay results as given in patent US5124146A, “Differential delivery of therapeutic agents across the blood brain barrier” (The State of Oregon Acting by and through the State Board …, priority 1991, dated 1992).
Where “and” joins values, the source holds several entries; their conditions need not be identical. Equal values may be shown once.

How the values were obtained:
[1] = system: antigentamicin antibody; experiment: precipitable radioactivity (% bound) in tissue and serum after antigentamicin antibody (immune serum); type: in vivo
Text: (§1) Pre: Precipitable radioactivity from serum prior to antibody
(§2) Post: Precipitable radioactivity from serum after antibody administration
(§3) PPer: Precipitable radioactivity from serum after perfusion of rat
(§4) % Bound: Percent precipitable radioactivity from tissue sample

[2] = system: serum proteins; experiment: non-specific precipitation/binding of gentamicin to serum proteins and tissue (pre-antibody serum, or non-immune serum); type: in vivo, Sprague-Dawley rat; conditions: non-immune serum, pre and post serum
Text: as §1, §2, §3, §4

[3] = percent clearance of activity from serum by perfusion; type: in vivo, Sprague-Dawley rat; conditions: for C1: percent clearance of activity from serum: individual rat, postperfusion/preperfusion × 100
Procedure: Subsequently, dosages of ^125 I-gentamicin were administered intravenously.
C1: Percent clearance of activity from serum

[4] = injected directly into the rat brain; cited from earlier work

Compound	% Bound: percent precipitable radioactivity from tissue sample, LH (non abscess bearing hemisphere) ([1]; individual rat)	% Bound, Post: precipitable radioactivity from serum after antibody administration ([1]; individual rat, 15 minutes after antibody)	% Bound, P-Per: precipitable radioactivity from serum after perfusion of rat ([1]; individual rat, after perfusion)	% Bound (tissue), AB (abscess), mean value ([1]; mean) [%]	% Bound (tissue), LH (non abscess bearing hemisphere), mean value ([1]; mean) [%]	% Bound, Post: serum precipitation after antibody, mean value ([1]; mean, 15 minutes after antibody) [%]	% Bound, P-Per: serum precipitation after perfusion, mean value ([1]; mean, after perfusion) [%]	non-specific precipitation with serum proteins (in words) [2]	C1: percent clearance of activity from serum ([3]; Immune serum)	C1: percent clearance of activity from serum, mean value ([3]; Immune serum) [%]	C1: percent clearance of activity from serum ([3]; Non immune serum)	C1: percent clearance of activity from serum, mean value ([3]; Non immune serum) [%]	effect on BBB permeability [4]
gentamicin	49% and 55% and 52% and 41% and 50%	97% and 96% and 94%	75% and 70% and 79% and 77%	56	51	96	70	nonspecifically precipitates with serum proteins	99% and 97% and 92% and 95% and 94% and 96%	96	84% and 86% and 85%	85	
CCCCC/C=C\C/C=C\C/C=C\C/C=C\CCCC(=O)O [arachidonic acid]													increase BBB permeability
